# Assay results reported in US20250084039A1, “4-SUBSTITUTED AMINOISOQUINOLINE DERIVATIVES” (Purdue Research Foundation, priority 2016, published 2025).
# Where two headings read alike, the source gives them in different places.
# Key:
# [1] = tested on: MV4-11; assay: Activity against AML cell line MV4-11 (CellTiter-Blue, 72 h); type: cell-based
# Procedure, shortened: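 Suspension cells seeded at 4000 per well, left overnight, then exposed to compound from 10 nM to 100 μM for 72 h. Viability by CellTiter-Blue resazurin fluorescence after 4 h (Ex 560, Em 590); IC50 from concentration-response.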
# [2] = molecular target: CDK6 (Homo sapiens (Human), UniProt Q00534); assay: DiscoverX Kd Elect binding
# CDK6, sequence (Q00534 whole entry): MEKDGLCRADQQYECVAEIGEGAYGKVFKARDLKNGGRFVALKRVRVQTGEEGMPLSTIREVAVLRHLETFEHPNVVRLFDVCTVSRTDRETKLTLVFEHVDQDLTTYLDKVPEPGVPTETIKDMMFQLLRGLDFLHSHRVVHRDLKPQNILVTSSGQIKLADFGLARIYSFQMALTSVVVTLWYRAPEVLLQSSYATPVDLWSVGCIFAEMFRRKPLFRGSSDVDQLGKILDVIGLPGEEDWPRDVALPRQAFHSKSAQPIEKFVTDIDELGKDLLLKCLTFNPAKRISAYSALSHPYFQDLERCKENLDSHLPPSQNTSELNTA
# Description: HCK is expressed more in human primary leukemic stem cells than in human normal hematopoietic stem cells. […] Other protein kinases such as SYK, BRAF, p38 (p38MAPK), PDGFRα/β, FGFR1, RET, FLT4, Tie2 have also been linked to leukemia. […] Thus, it was tested if HSN286 and analogs were also targeting kinases that play critical roles in AML. […] (Table 9). The inhibition of the Src-kinase family could be important clinically because these kinases are downstream of FLT3. In the event of FLT3 mutation, the inhibition of the Src-family kinases could still lead to proliferation inhibition.
# [3] = tested on: HL60; assay: Selectivity, proliferation IC50; type: cell-based; conditions: Homo sapiens, HL-60; read-out: IC50 HL60 (acute promyelocytic leukemia)
# Description: (§1) Cell lines were seeded into 96-well plates the afternoon prior to treatment. Approximately 18 hours later, compounds were diluted in dimethyl sulfoxide (DMSO) and added to cells. Plates were incubated for 72 hours and cells viability determined with CellTiter-Blue Cell Viability Assay (Promega, Madison, WI). Plates were read after 4 additional hours of incubation at 37° C. using plate reader (Bio-Tek, Winooski. VT). Data was analyzed and graphed using GraphPad Prism Software (Graphpad. La Jolla, CA).
# [4] = tested on: Kasumi-1; assay: Selectivity, proliferation IC50; type: cell-based; conditions: Homo sapiens, read-out: IC50 Kasumi-1 (non-FLT3 AML line)
# Description: as §1
# [5] = tested on: THP1; assay: Selectivity, proliferation IC50; type: cell-based; conditions: Homo sapiens, THP-1; read-out: IC50 THP1 (non-FLT3-driven AML line)
# Description: as §1
# [6] = tested on: MRC5; assay: Selectivity, proliferation IC50 (normal cell line); type: cell-based; conditions: Homo sapiens, read-out: IC50 MRC5 (normal lung fibroblast)
# Description: as §1
# [7] = tested on: MV4-11; assay: In vivo efficacy, NSG mice injected with MV4-11; conditions: 25 mg/kg, three times per week, NSG mice with MV4-11
# Description: Method: Six week old female NSG mice were injected intravenously with 1×10^6 logarithmically growing MV4-11 cells expressing luciferase (MV4-11). Luciferase expressing leukemia cells were imaged using the IVIS Xenogen system (Perkin Elmer, Waltham MA). On day of imaging, mice are injected IP with 150 mg/kg luciferin (Perkin Elmer, Waltham, MA), anaesthetized and then placed in imaging chamber. Maximal luminescence is recorded and then averaged among each treatment group. Ten days post cell injection, mice were imaged and then sorted into groups so that leukemic burden was similar and dosing started. Mice were dosed either with vehicle (10% DMSO/10% Tween 20/80% saline) or 25 mg/kg of compounds three times per week for the duration of the experiment. Mice were weighed and observed five days per week and imaged once per week.
# [8] = Liver microsomal stability assay; type: in vitro ADME, mouse; conditions: compared to the other analogs
# [9] = tested on: STAT3 phosphorylation; assay: Western blot in MV4-11; type: cell-based, human
# Description: (§2) Effect of HSW630-1 on protein expression was tested in the MV4-11 leukemia cell line. Total protein extracts were prepared using RIPA buffer (SIGMA) supplemented with Complete Mini™ protease inhibitor and PHOStop™ phosphatase inhibitors (Roche). Equal amounts of proteins (up to 25 μg) were separated on 4-12% NuPAGE gels in 1×MOPS or 1×MES buffer (Invitrogen) and transferred onto PVDF membranes (Millipore). The membrane was blocked with 5% dry milk in 1×TBS/0.1% Tween 20 (TBST) for at least 1 h at room temperature and incubated with human specific primary antibodies: FLT3, Phospho-FLT3, c-Myc (Cell Signaling Technologies), KRAS (Santa Cruz), or mouse anti-β-actin (SIGMA) overnight at 4° C. The membrane was washed 3 times in TBST and incubated with a horseradish peroxidase-conjugated secondary anti-rabbit or anti-mouse antibody (Cell Signaling Technologies) for 1 h at room temperature. Blots were again washed and the signal was detected with SuperSignal West Femto Chemiluminescent Substrate (Pierce) and exposed to HyBlot CL® autoradiography film (Denville).
# (§3) To determine if the phosphorylation of FLT3, SRC kinase and downstream effectors or kinases (such as STAT3 [44], STAT5 [45] and p-38 [46]) could be affected by the compounds. […] The level of SRC kinase increased over time (amount at the 48 h time point is greater than at the 6 and 24 h time points). Unfortunately the bands for the phosphorylated SRC kinase are blurred despite repeated attempts to get clearer bands. […] From the above Western analyses, it is confirmed that the proliferation inhibition of MV4-11 is due to the inhibition of FLT3 signaling axis.
# [10] = tested on: STAT5 phosphorylation; assay: Western blot in MV4-11; type: cell-based, human
# Description: as §2, §3
# [11] = tested on: p-38 phosphorylation; assay: Western blot in MV4-11; type: cell-based, human
# Description: as §2, §3
# [12] = tested on: MV4-11; assay: Proliferation inhibition screen at 100 nM; type: cell-based; conditions: 100 nM compound, FIG. 10
# Description: To determine inhibition at 100 nM or […], 96-well plates were seeded the afternoon before treatment. Plates were then treated with compound diluted in dimethyl sulfoxide (DMSO) as well as a DMSO control the following day for 72 hours. After this time the plates were then treated with 10 μL of CellTiter-Blue Cell Viability Assay (Promega, Madison, WI) for 4 hours. Then the plates were read on a plate reader (Bio-Tek, Winooski, VT). Data was analyzed on Excel as a percent of the DMSO vehicle.
# From these cell proliferation studies, MV4-11 appeared to be more sensitive to the compounds than the other cell lines (Table 6A). […] To identify group of compounds potently inhibiting cancer cell proliferation, a lower concentration of compounds (100 nM) were used to screen against MV4-11 (FIG. 10). From these experiments, potent amide compounds A7, A10, A15, A16, A18, A20, B15 and D30 (as indicated by ***, FIG. 10) were selected. […] Typically amides that contain basic amines are included in compound libraries to improve aqueous solubility but it appears that the presence of a basic amine in the side chain of the compounds also facilitated the actual inhibition of MV4-11 proliferation.
Compound,"IC50 ([1]; 72 h, read-out: IC50 against MV4-11/uM)","IC50 ([1]; FIG. 1, read-out: anticancer activities (IC50) against MV4-11)","IC50 ([1]; Table 2, read-out: IC50 (nM) against MV4-11 (AML cell line))",Kd [2],IC50 [3],IC50 [4],IC50 [5],IC50 [6],in-vivo efficacy (survival) [7],stability in mouse liver microsomes [8],STAT3 phosphorylation (Western) [9],STAT5 phosphorylation (Western) [10],p-38 phosphorylation (Western) [11],inhibition of MV4-11 proliferation in words [12]
CN(C)CC(O)CNC(=O)c1ccc(C#Cc2c(N)ncc3ccc(Cl)cc23)cc1 (centres unmarked) [HSM1702],0.003 µM,0.003 µM,0.0055 ± 0.0013 µM,,,,,,,,,,,
Cc1ccc(C(=O)Nc2ccc(CN3CCN(C)CC3)c(C(F)(F)F)c2)cc1C#Cc1c(N)ncc2ccc(Cl)cc12 [HSN286],,,,28000 nM,2160 nM,> 10000 nM,2320 nM,1270 nM,not efficacious,preformed much better,inhibited,inhibited,inhibited,potent
